Legend:
[1] = test system: Plasmodium falciparum; experiment: In vitro growth inhibition as IC50 against chloroquine-resistant Plasmodium falciparum FcB2; type: functional, organism-based
[2] = test system: Plasmodium falciparum; experiment: In vitro growth inhibition as IC50 against chloroquine-resistant Plasmodium falciparum FcB1; type: functional, organism-based
[3] = test system: Mus musculus; experiment: In vivo activity against Plasmodium berghei parasitaemia.; type: functional, organism-based
[4] = test system: Mus musculus; experiment: In vivo activity against Plasmodium berghei parasitaemia; type: functional

In the case of “4N-(4-diethylamino-1-methylbutyl)-7-chloro-4-quinolinamine 1-N-[Au(PPh3)] compound with PF6- [listing 1 of 2 here]”, the IC50 [1] is reported as 0.023 µM and the IC50 [2] is reported as 0.0051 µM.
With “4N-(4-diethylamino-1-methylbutyl)-7-chloro-4-quinolinamine 1-N-[Au(PPh3)] compound with PF6- [listing 2 of 2 here]” the Parasitemia [3] was 7%.
`CCN(CC)CCCC(C)Nc1ccnc2cc(Cl)ccc12.O=P(O)(O)O.O=P(O)(O)O` (centres undefined) [CHLOROQUINE PHOSPHATE] gave a Parasitemia [4] of 25%.

Source: ChEMBL document CHEMBL1130066, “Toward a novel metal-based chemotherapy against tropical diseases. 3. Synthesis and antimalarial activity in vitro and in vivo of the new gold-chloroquine complex [Au(PPh3)(CQ)]PF6” (J Med Chem, 1997)
